Source: publication PMC10127554 (Chemical biology & drug design, 2022)

What was measured:
[1] = system: non-cancerous human lung fibroblast cells (HLF); experiment: Cytotoxicity, CellTiter Glo assay, non-cancerous human lung fibroblast cells; format: cell-based; details: for IC50: Homo sapiens, Fibroblast, 72 h, read-out: IC50 Non-cancerous HLF
NCI-H522 cells [2] = experiment: Antiproliferative activity, CellTiter Glo assay, NCI-H522; details: Homo sapiens, NCI-H522, 72 h, read-out: IC50 NCIH522
A549 cells = experiment: Antiproliferative activity, CellTiter Glo assay, A549; details: Homo sapiens, A549, 72 h, read-out: IC50 A549
[3] = system: panel of 485 kinases (including 110 oncogenic kinases); experiment: Kinase activity profiling; format: biochemical
NCI-H522 cells [4] = experiment: Cell cycle analysis by flow cytometry; format: cell-based, human; details: 48hrs at 5 μM
ANKK1 = biological target: T1, ANKK1 (Homo sapiens, UniProt Q8NFD2); experiment: Kinase activity profiling; format: biochemical; details: concentration not given
T1 sequence (Q8NFD2 1-765): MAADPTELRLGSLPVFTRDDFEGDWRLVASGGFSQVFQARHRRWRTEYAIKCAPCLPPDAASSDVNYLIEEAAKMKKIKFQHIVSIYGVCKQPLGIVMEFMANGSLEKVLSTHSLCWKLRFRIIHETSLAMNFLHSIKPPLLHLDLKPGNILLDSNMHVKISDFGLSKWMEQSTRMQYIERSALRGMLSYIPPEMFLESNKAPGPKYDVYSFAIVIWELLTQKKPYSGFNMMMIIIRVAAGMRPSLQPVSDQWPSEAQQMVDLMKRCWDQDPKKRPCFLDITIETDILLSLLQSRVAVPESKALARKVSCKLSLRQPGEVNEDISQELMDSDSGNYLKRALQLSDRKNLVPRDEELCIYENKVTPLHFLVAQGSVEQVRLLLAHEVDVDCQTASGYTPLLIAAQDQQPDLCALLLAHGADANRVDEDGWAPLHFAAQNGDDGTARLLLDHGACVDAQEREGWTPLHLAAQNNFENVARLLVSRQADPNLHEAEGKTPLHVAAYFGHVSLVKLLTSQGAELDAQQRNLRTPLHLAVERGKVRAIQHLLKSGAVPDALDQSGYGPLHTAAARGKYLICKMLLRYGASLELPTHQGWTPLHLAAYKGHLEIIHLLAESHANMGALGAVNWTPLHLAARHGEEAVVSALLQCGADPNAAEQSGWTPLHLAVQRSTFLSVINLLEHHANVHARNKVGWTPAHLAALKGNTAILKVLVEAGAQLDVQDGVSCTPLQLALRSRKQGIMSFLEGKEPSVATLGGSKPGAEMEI

NUAK2 = biological target: T2, NUAK2 (Homo sapiens, UniProt Q9H093); experiment: Kinase activity profiling; format: biochemical; details: concentration not given
T2 sequence (Q9H093 1-628): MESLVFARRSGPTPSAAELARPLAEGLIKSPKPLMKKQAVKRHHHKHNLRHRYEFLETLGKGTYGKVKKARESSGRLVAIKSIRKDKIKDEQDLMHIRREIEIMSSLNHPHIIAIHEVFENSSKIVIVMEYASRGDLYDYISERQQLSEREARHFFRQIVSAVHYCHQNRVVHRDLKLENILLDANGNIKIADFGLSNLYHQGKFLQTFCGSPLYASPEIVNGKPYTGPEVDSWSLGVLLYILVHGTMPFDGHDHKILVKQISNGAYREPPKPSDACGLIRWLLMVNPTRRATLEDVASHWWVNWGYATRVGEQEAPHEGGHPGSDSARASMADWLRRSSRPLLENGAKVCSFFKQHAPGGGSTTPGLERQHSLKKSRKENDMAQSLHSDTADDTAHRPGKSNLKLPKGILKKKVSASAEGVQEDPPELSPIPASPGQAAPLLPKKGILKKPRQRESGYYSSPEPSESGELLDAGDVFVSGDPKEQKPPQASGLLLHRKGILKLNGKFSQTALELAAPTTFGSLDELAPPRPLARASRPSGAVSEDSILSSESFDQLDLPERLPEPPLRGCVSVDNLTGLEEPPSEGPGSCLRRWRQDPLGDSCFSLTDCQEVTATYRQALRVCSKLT

ACVRL1 = ACVRL1 (Homo sapiens, UniProt P37023); experiment: Kinase activity profiling; format: biochemical; details: concentration not given
Chain of ACVRL1 (P37023 22-503): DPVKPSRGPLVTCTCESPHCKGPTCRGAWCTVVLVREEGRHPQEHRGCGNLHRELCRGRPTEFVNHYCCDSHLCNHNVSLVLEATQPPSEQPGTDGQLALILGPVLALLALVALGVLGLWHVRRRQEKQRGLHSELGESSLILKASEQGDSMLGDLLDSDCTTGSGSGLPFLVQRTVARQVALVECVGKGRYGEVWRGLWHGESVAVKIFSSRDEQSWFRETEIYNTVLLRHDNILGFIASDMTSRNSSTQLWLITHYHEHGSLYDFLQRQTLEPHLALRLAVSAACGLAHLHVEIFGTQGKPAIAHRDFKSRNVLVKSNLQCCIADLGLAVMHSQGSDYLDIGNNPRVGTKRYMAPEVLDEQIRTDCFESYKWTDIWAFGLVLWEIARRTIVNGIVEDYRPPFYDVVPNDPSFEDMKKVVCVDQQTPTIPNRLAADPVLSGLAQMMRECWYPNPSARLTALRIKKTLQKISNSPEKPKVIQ

| IC50 (NCI-H522 cells [2]) | IC50 (A549 cells) | inhibitory activity against ANKK1 (ANKK1) | inhibitory activity against NUAK2 (NUAK2) | inhibitory activity against ACVRL1 (ACVRL1) | SMILES | IC50 [1] | times less cytotoxic to non-cancerous cells ([1]; non-cancerous cells versus A549 and NCIH522 cancer cell lines) | inhibitory activity over panel of 485 kinases [3] | effect on cell cycle progression (NCI-H522 cells [4]) |
| --- | --- | --- | --- | --- | --- | --- | --- | --- | --- |
| > 100 µM | > 100 µM |  |  |  | CC1=NN(c2ccccc2)C(=O)C1(C)O (stereo not drawn) [P1, 4-hydroxy-4,5-dimethyl-2-phenyl-2,4-dihydro-3H-pyrazol-3-one] | > 100 µM |  |  |  |
| 17.9 ± 3.36 µM | 9.51 ± 3.12 µM |  |  |  | O=C1CC(c2ccc(F)cc2)=NN1c1ccccc1 [P8, 5-(4-fluorophenyl)-2-phenyl-2,4-dihydro-3H-pyrazol-3-one] | 17.7 ± 1.1 µM |  |  |  |
| 4.7 ± 1.38 µM | 6.35 ± 0.85 µM | 50% | 41% | 47% | O=C1CC(c2ccc(Br)cc2)=NN1c1ccccc1 [P7, 5-(4-bromophenyl)-2-phenyl-2,4-dihydro-3H-pyrazol-3-one] | 61.3 ± 1.08 µM | 10 times | no potential inhibitory activity against any tested kinase | more cell population in G0/G1 phase |
| 4.93 ± 1.13 µM | 2.61 ± 1.12 µM |  |  |  | O=C1CC(c2ccccc2)=NN1c1ccc(Br)cc1 [P4, 2-(4-bromophenyl)-5-phenyl-2,4-dihydro-3H-pyrazol-3-one] | 0.72 ± 1.07 µM |  |  |  |
| 40.5 ± 2.3 µM | 39.6 ± 1.05 µM |  |  |  | O=C1CC(c2ccc([N+](=O)[O-])cc2)=NN1c1ccccc1 [P6, 5-(4-nitrophenyl)-2-phenyl-2,4-dihydro-3H-pyrazol-3-one] | 26.8 ± 1.4 µM |  |  |  |
| 5.07 ± 1.18 µM | 5.56 ± 0.07 µM |  |  |  | O=C1CC(c2ccc(Br)cc2)=NN1c1cc(Cl)cc(Cl)c1 [P17, 5-(4-bromophenyl)-2-(3,5-dichlorophenyl)-2,4-dihydro-3H-pyrazol-3-one] | 6.94 ± 1.12 µM |  |  |  |
| 5.34 ± 0.94 µM | 8.46 ± 2.03 µM |  |  |  | CN(C)C/C=C/C(=O)Nc1cc2c(Nc3ccc(F)c(Cl)c3)ncnc2cc1O[C@H]1CCOC1 [PC-1, Afatinib, reference compound] | 12.2 ± 3.12 µM |  |  |  |
| 9.9 ± 2.44 µM | 8.6 ± 0.59 µM |  |  |  | O=C1CC(c2cc(F)c(F)c(F)c2F)=NN1c1ccccc1 [P12, 2-phenyl-5-(2,3,4,5-tetrafluorophenyl)-2,4-dihydro-3H-pyrazol-3-one] | 8.52 ± 1.09 µM |  |  |  |

Second part, the compound before the results:

| SMILES | IC50 (NCI-H522 cells [2]) | IC50 (A549 cells) | inhibitory activity against ANKK1 (ANKK1) | inhibitory activity against NUAK2 (NUAK2) | inhibitory activity against ACVRL1 (ACVRL1) | IC50 [1] | times less cytotoxic to non-cancerous cells ([1]; non-cancerous cells versus A549 and NCIH522 cancer cell lines) | inhibitory activity over panel of 485 kinases [3] | effect on cell cycle progression (NCI-H522 cells [4]) |
| --- | --- | --- | --- | --- | --- | --- | --- | --- | --- |
| COc1ccc(C2=NN(c3ccccc3)C(=O)C2)cc1 [P9, 5-(4-methoxyphenyl)-2-phenyl-2,4-dihydro-3H-pyrazol-3-one] | 51.2 ± 3.06 µM | 42.2 ± 2.76 µM |  |  |  |  |  |  |  |
| CCCC1=NN(c2ccccc2)C(=O)C1 [P2, 2-phenyl-5-propyl-2,4-dihydro-3H-pyrazol-3-one] | > 100 µM | > 100 µM |  |  |  |  |  |  |  |
| O=C1CC(c2ccc(Br)cc2)=NN1c1ccc(C(F)(F)F)cc1 [P16, 5-(4-bromophenyl)-2-(4-(trifluoromethyl)phenyl)-2,4-dihydro-3H-pyrazol-3-one] | 2.95 ± 0.18 µM | 3.37 ± 0.1 µM |  |  |  | 1.45 ± 1.14 µM |  |  |  |
| O=C1CC(c2ccccc2)=NN1c1ccc(Cl)cc1 [P5, 2-(4-chlorophenyl)-5-phenyl-2,4-dihydro-3H-pyrazol-3-one] | 4.5 ± 1.16 µM | 1.98 ± 1.1 µM |  |  |  | 0.99 ± 1.25 µM |  |  |  |
| O=C1CC(c2ccc(F)cc2)=NN1c1ccc(Br)cc1 [P13, 2-(4-bromophenyl)-5-(4-fluorophenyl)-2,4-dihydro-3H-pyrazol-3-one] | 3.7 ± 0.34 µM | 2.67 ± 0.51 µM |  |  |  | 3.57 ± 1.15 µM |  |  | more cell population in G2/M phase |
| O=C1CC(c2ccc(C(F)(F)F)cc2)=NN1c1ccccc1 [P11, 2-phenyl-5-(4-(trifluoromethyl)phenyl)-2,4-dihydro-3H-pyrazol-3-one] | 4.88 ± 1.73 µM | 5.98 ± 0.84 µM |  |  |  | 26.1 ± 1.12 µM |  |  | more cell population in G0/G1 phase |
| O=C1CC(c2ccc(Br)cc2)=NN1c1ccc(Br)cc1 [P14, 2,5-bis(4-bromophenyl)-2,4-dihydro-3H-pyrazol-3-one] | 2.41 ± 0.57 µM | 2.73 ± 0.28 µM |  |  |  | 2.55 ± 1.1 µM |  |  | more cell population in G2/M phase |
| O=C1CC(c2ccccc2)=NN1c1ccccc1 [P3, 2,5-diphenyl-2,4-dihydro-3H-pyrazol-3-one] | 17 ± 2.61 µM | 10.3 ± 1.55 µM |  |  |  | 25.1 ± 1.39 µM |  |  |  |
| COc1cccc(C2=NN(c3ccccc3)C(=O)C2)c1 [P10, 5-(3-methoxyphenyl)-2-phenyl-2,4-dihydro-3H-pyrazol-3-one] | > 100 µM | > 100 µM |  |  |  |  |  |  |  |
